{"source": "patent US20170232031A1", "about": "“Inhibitors of Zika Virus” (Riboscience LLC, priority 2016, published 2017)", "key": {"[1]": {"system": "ZIKV strain MR766 (Genbank LC002520)", "experiment": "Antiviral activity against ZIKV replication in cells", "assay_type": "cell-based, Zika virus", "experimental": "(§1) The human hepatoma cell line Huh-7, are cultured in DMEM without phenol-red (Cellgro Mediatech, Cat #10-013-CV containing 4.5 g/l glucose, L-glutamine & sodium pyruvate). The medium is further supplemented with 10% (v/v) FBS (ATLAS Cat # F-0500-A, lot#850114A) and 1% (vlv) penicillin/streptomycin (Cellgro Mediatech #30-022-CI). Cells are maintained at 37° C. in a humidified 5% CO2 atmosphere. Zika virus representative strain titers are measured on BHK-21 cells, using a standard plaque assay procedure. For the determination of EC50 of nucleoside in the antiviral assay, Huh-7 cells are plated in white 96-well plates in MEM media supplemented with 10% FBS and 1% penicillin/streptomycin. After incubation for 24 h, the cells are infected at a multiplicity of infection (MOI) of 0.5 for 2 h at 37° C. Ten three-fold dilutions of compounds are prepared in the same media supplemented with 1% DMSO. After the 2 h adsorption phase, the virus is aspirated off and diluted compound is added to four wells each. Huh-7 cells are plated as described above and exposed to the same concentration range of compounds. Untreated cells are carried along as a control. After a 3-day incubation at 37° C., the cell viability is determined using Cell-titer Glo™ reagent (Promega, Madison, Wis.) that is added to each well and incubated for 5 min. Plates are analyzed using a Thermo Luminoskan plate reader (Waltham, Mass.)."}, "[2]": {"experiment": "Cell viability (CC50) alongside ZIKV antiviral assay, Cell-titer Glo", "assay_type": "cell-based", "conditions": "human, Huh-7 cells", "experimental": "as §1"}, "[3]": {"system": "HCV replicon of genotype 1a (H77)", "experiment": "HCV replicon genotype 1a antiviral activity", "assay_type": "cell-based", "conditions": "Hepatitis C virus; replicon genotype 1a (H77); read-out: HCV GT1a EC50"}, "[4]": {"experiment": "Cytotoxicity (CC50) alongside HCV GT1a replicon assay", "assay_type": "cell-based", "conditions": "HCV GT1a (H77) replicon cells; replicon genotype 1a (H77)"}, "[5]": {"system": "HCV replicon of genotype 1b (Con1)", "experiment": "HCV replicon genotype 1b antiviral activity", "assay_type": "cell-based", "conditions": "Hepatitis C virus; replicon genotype 1b (Con1); read-out: HCV GT1b EC50"}, "human RNA polymerase I": {"target": "T1, human RNA polymerase I (Homo sapiens, UniProt O95602+Q9H9Y6)", "T1 construct": "endogenous in cells; host or cells: HeLa", "experiment": "RNA polymerase I specific reporter gene assay in HeLa cells", "assay_type": "cell-based", "conditions": "10 or 100 μM (highest soluble concentrations)"}, "human RNA polymerase II": {"target": "T2, human RNA polymerase II (Homo sapiens, UniProt P24928+P30876)", "T2 construct": "endogenous in cells; host or cells: HeLa", "experiment": "RNA polymerase II specific reporter gene assay in HeLa cells", "assay_type": "cell-based", "conditions": "10 or 100 μM (highest soluble concentrations)"}, "human RNA polymerase III": {"target": "T3, human RNA polymerase III (Homo sapiens, UniProt O14802+Q9NW08)", "T3 construct": "endogenous in cells; host or cells: HeLa", "experiment": "RNA polymerase III specific reporter gene assay in HeLa cells", "assay_type": "cell-based", "conditions": "10 or 100 μM (highest soluble concentrations)"}, "[6]": {"experiment": "Solubility in cell culture medium / aqueous media", "conditions": "plasma or biological fluid"}, "[7]": {"experiment": "Cytotoxicity (CC50) alongside HCV GT1b replicon assay", "conditions": "HCV GT1b (Con1) replicon cells"}}, "note": "Like-named read-outs stand apart in the source and are kept apart here.", "data": [{"compound": "C[C@H](NP(=O)(OC[C@@]1(N=[N+]=[N-])O[C@@H](n2ccc(=O)[nH]c2=O)[C@H](O)[C@@H]1O)Oc1cccc2ccccc12)C(=O)OCc1ccccc1", "note": "(stereo partly drawn) [Compound I-1, benzyl ((((2R,3S,4R,5R)-2-azido-5-(2,4-dioxo-3,4-dihydropyrimidin-1(2H)-yl)-3,4-dihydroxytetrahydrofuran-2-yl)methoxy)(naphthalen-1-yloxy)phosphoryl)-L-alaninate]", "values": [{"measurement": "EC50", "setting": "[1]; Zika virus, ZIKV strain MR766, human Huh-7 or mouse MEF cells", "value": 740, "unit": "nM"}, {"measurement": "antiviral inhibition potency (EC50), in words", "setting": "[1]; summary statement", "value": "submicromolar"}, {"measurement": "CC50 at 3 day", "setting": "[2]; cytotoxicity column of the ZIKV assay, read-out: ZIKV CC50", "value": "> 10000", "unit": "nM"}, {"measurement": "CC50 at 3 day", "setting": "[2]; summary statement, cytotoxicity in cell culture, read-out: Huh-7 cell CC50", "value": "> 100000", "unit": "nM"}, {"measurement": "EC50", "setting": "[3]", "value": 420, "unit": "nM"}, {"measurement": "CC50", "setting": "[4]", "value": "> 10000", "unit": "nM"}, {"measurement": "EC50", "setting": "[5]", "value": 330, "unit": "nM"}, {"measurement": "inhibition of human RNA polymerase I activity (reporter gene)", "setting": "human RNA polymerase I", "value": "did not inhibit"}, {"measurement": "inhibition of human RNA polymerase II activity (reporter gene)", "setting": "human RNA polymerase II", "value": "did not inhibit"}, {"measurement": "inhibition of human RNA polymerase III activity (reporter gene)", "setting": "human RNA polymerase III", "value": "did not inhibit"}, {"measurement": "solubility", "setting": "[6]", "value": "≤ 10", "unit": "µM"}, {"measurement": "CC50", "setting": "[7]", "value": "> 10000", "unit": "nM"}]}]}
